In US12240844B2 (Voronoi, Inc., priority 2019, dated 2025):

What was measured:
Assay type in all cases: biochemical
human GST-CLK1 (129-end) = target: T1, human GST-CLK1 (129-end) (Homo sapiens, UniProt P49759); assay: GST-CLK1 enzyme inhibition, ADP-Glo kinase assay; details: ATP 10 uM
T1 construct: purified human GST-CLK1 (129-end, Signalchem) enzyme; GST; purchased Signalchem
Outline: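 GST-CLK1 (129-end, 3 ng) reacted with 10 uM ATP and substrate in 40 mM Tris-HCl pH 7.4, 20 mM MgCl2, 0.5 mg/mL BSA, 50 uM DTT, 1 h at 25° C. ADP-Glo luminescence normalised to solvent control; IC50 from triplicate data.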

[1] = target: T2, human GST-DYRK1A (full length) (Homo sapiens, UniProt Q13627); assay: GST-DYRK1A enzyme inhibition, ADP-Glo kinase assay; details: read-out: DYRK1 IC50
T2 construct: purified human GST-DYRK1A (full length, Thermo scientifics) enzyme; GST; purchased Thermo scientifics
Outline: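 Full-length human GST-DYRK1A (10 ng) incubated with 10 uM ATP and specific substrate for 1 h at 25° C in 40 mM Tris-HCl pH 7.4, 20 mM MgCl2, 0.5 mg/mL BSA, 50 uM DTT. ADP formation read by ADP-Glo luminescence; IC50 (nM) versus solvent control, triplicate.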

LRRK2 = LRRK2 (Homo sapiens, UniProt Q5S007); assay: LRRK2 enzyme inhibition, ADP-Glo kinase assay; set-up: purchased Invitrogen PR8604B
LRRK2, sequence (Q5S007 970-2527 limits assumed): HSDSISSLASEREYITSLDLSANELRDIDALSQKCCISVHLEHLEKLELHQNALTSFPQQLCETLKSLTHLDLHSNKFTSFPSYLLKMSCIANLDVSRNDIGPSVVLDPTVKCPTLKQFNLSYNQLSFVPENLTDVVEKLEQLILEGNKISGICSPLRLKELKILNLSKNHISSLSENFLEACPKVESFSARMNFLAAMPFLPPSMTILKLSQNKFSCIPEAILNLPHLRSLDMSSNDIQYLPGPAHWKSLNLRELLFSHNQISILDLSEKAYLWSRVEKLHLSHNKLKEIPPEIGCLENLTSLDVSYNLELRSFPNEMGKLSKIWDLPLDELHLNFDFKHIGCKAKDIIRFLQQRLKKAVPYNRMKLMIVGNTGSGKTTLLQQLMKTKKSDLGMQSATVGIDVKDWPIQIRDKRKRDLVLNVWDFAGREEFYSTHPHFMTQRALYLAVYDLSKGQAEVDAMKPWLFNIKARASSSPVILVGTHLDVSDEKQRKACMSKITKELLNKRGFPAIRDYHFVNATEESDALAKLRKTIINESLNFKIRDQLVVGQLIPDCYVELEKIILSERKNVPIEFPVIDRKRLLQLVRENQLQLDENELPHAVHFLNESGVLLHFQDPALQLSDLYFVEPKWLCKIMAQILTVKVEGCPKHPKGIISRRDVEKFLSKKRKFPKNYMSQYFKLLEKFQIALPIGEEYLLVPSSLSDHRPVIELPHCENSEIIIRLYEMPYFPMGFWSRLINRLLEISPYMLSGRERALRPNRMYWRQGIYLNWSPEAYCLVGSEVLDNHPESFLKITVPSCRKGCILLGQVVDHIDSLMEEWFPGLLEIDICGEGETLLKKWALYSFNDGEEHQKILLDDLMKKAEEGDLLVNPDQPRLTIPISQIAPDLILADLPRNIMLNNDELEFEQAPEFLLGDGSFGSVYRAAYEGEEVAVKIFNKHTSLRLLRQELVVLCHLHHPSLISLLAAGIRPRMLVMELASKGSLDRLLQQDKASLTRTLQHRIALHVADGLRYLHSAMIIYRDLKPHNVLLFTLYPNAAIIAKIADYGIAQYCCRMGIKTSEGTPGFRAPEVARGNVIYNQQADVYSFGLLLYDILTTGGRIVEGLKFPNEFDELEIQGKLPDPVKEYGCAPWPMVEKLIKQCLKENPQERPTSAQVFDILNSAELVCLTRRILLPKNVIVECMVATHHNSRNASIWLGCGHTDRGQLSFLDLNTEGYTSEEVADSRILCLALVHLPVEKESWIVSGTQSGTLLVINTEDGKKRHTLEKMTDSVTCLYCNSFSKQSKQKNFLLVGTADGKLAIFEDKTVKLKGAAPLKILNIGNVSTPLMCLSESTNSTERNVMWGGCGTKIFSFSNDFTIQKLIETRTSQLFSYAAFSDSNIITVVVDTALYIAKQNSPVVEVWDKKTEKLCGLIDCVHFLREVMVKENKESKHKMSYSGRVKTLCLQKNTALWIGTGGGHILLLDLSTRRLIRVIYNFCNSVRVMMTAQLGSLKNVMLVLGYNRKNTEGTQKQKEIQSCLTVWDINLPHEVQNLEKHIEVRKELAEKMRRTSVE
Protocol: In order to evaluate the inhibitory activity of the compounds according to the present invention on LRRK2, LRRK2 (G2019S), DYRK1, CLK1 and TTK kinases, the following experiment was performed.
Example compounds were reacted with the purified human LRRK2 (Invitrogen #PR8604B) enzyme to evaluate the enzyme inhibitory ability as follows. The reaction buffer was used as the composition of 40 mM Tris-HCl pH7.4, 20 mM MgCl2, 0.5 mg/ml BSA and 50 μM DTT, and the reaction of all test materials was performed on the reaction buffer. The compound was diluted with 10 mM DMSO stock in 12 steps by a serial dilution method, and the enzyme activity was measured at the final compound concentrations of 50, 10, 2, 0.4, 0.08, 0.016, 0.0032, 0.00064, 0.000128, 0.0000256, 0.00000512 and 0.000001024 μM. In the test, the human LRRK2 (25 ng) enzyme was reacted with the purified ATP (10 μM) and an enzyme substrate ([…]) at 25° C. for 2 hours, and then the enzyme activity was identified using the in vitro ADP-Glo™ kinase assay (promega). The enzyme activity reaction liquid, an ADP-Glo reaction liquid and an enzyme potency detection solution were reacted in a ratio of 2:2:1, and the degree of inhibition of enzyme activity was measured by Luminescence. The degree of inhibition of enzyme activity according to the treatment concentrations of the respective compounds was calculated based on the fluorescence of the enzyme activity of a solvent control group that was not treated with the compound, where the concentration of each compound to inhibit enzyme activity inhibition by 50% was determined as an IC50 (nM) value and obtained using Prism (Version 5.01, GraphPad) software.
In the table below, the following designations were used for the evaluation of enzyme inhibitory ability.

LRRK2 (G2019S) = LRRK2 (G2019S) (Homo sapiens, UniProt Q5S007, G2019S); assay: LRRK2 G2019S enzyme inhibition, ADP-Glo kinase assay; set-up: purchased SignalChem L10-12GG
LRRK2 (G2019S), sequence (Q5S007 970-2527 G2019S limits assumed): as the sequence (Q5S007 970-2527 limits assumed) above, with G1050S counted along it
Outline: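 Purified human LRRK2 G2019S (16 ng) with 25 μM ATP and 0.2 μg substrate, 2 h at 25° C in 40 mM Tris-HCl pH 7.4, 20 mM MgCl2, 0.5 mg/ml BSA, 50 μM DTT; compound at 12 final concentrations from 50 μM downward. ADP-Glo luminescence versus solvent control gave IC50 (nM).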

T1 sequence (P49759 129-484 limits assumed): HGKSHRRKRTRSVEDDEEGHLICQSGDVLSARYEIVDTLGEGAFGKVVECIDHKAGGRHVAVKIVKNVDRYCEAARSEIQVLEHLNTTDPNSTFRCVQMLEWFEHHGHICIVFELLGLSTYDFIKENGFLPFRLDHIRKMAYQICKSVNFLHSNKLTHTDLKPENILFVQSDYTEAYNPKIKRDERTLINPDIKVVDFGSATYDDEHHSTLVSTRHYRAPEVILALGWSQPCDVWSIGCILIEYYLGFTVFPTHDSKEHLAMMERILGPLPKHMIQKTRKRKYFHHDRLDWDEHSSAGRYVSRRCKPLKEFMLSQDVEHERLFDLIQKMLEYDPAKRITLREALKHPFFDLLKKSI

SMILES | IC50 (human GST-CLK1 (129-end)) [nM] | IC50 [1] [nM] | IC50 (LRRK2) [nM] | IC50 (LRRK2 (G2019S)) [nM]
CNc1cc(Nc2ccc(S(C)(=O)=O)cc2OC)nc2[nH]cc(C#N)c12 [Example 123] | 301 to 1000 | 301 to 1000 | < 100 | < 100
COCCNc1cc(Nc2ccc(C(=O)N3CCOCC3)c3c2OCCO3)nc2[nH]cc(C(F)(F)F)c12 [Example 158, (8-((4-((2-methoxyethyl)amino)-3-(trifluoromethyl)-1H-pyrrolo[2,3-b]pyridin-6-yl)amino)-2,3-dihydrobenzo[b] [1,4]dioxin-5-yl)(morpholino) methanone] | < 100 | < 100 | < 100 | < 100
CC(C)CNc1cc(Nc2ccc(C(=O)N3CCOCC3)c3c2OCCO3)nc2[nH]cc(C(F)(F)F)c12 [Example 156, (8-((4-(isobutylamino)-3-(trifluoromethyl)-1H-pyrrolo[2,3-b]pyridin-6-yl)amino)-2,3-dihydrobenzo[b] [1,4]dioxin-5-yl)(morpholino) methanone] | 301 to 1000 | 301 to 1000 | < 100 | 301 to 1000
CCNc1cc(Nc2ccc(S(C)(=O)=O)cc2OC)nc2[nH]cc(C(F)(F)F)c12 [Example 180, N^4-ethyl-N^6-(2-methoxy-4-(methylsulfonyl)phenyl)-3-(trifluoromethyl)-1H-pyrrolo[2,3-b]pyridine-4,6-diamine] | 301 to 1000 | 301 to 1000 | 301 to 1000 | 301 to 1000
COc1cc(S(C)(=O)=O)ccc1Nc1cc(C2CC2)c2c(C#N)c[nH]c2n1 [Example 229, 4-cyclopropyl-6-((2-methoxy-4-(methylsulfonyl)phenyl)amino)-1H-pyrrolo[2,3-b]pyridine-3-carbonitrile] | 301 to 1000 | 301 to 1000 | 101 to 300 | 301 to 1000
CCNc1cc(Nc2ccc(C(=O)N3CCOCC3)c3c2OCO3)nc2[nH]cc(C(F)(F)F)c12 [Example 236, (7-((4-(ethylamino)-3-(trifluoromethyl)-1H-pyrrolo[2,3-b]pyridin-6-yl)amino)benzo[d][1,3]dioxol-4-yl)(morpholino) methanone] | < 100 | < 100 | < 100 | 101 to 300

Other lines, results leading:

IC50 (human GST-CLK1 (129-end)) [nM] | IC50 [1] [nM] | IC50 (LRRK2) [nM] | IC50 (LRRK2 (G2019S)) [nM] | SMILES
< 100 | 301 to 1000 | < 100 | < 100 | CCNc1cc(Nc2ccc(C(=O)N3CCC(N4CCOCC4)CC3)c3c2OCCO3)nc2[nH]cc(C#N)c12 [Example 113, 4-(ethylamino)-6-((8-(4-morpholinopiperidine-1-carbonyl)-2,3-dihydrobenzo [b] [1,4]dioxin-5-yl)amino)-1H-pyrrolo[2,3-b]pyridine-3-carbonitrile]
< 100 | < 100 | < 100 | < 100 | CCNc1cc(Nc2ccc(C(=O)N3CCOCC3)c3c2OCC3)nc2[nH]cc(C(F)(F)F)c12 [Example 89, (7-((4-(ethylamino)-3-(trifluoromethyl)-1H-pyrrolo[2,3-b]pyridin-6-yl)amino)-2,3-dihydrobenzofuran-4-yl)(morpholino) methanone]
301 to 1000 | 301 to 1000 | < 100 |  | COc1cc(P2(=O)CCN(C3CC3)CC2)ccc1Nc1cc(NC2CC2)c2c(C(F)(F)F)c[nH]c2n1 [Example 211, 1-cyclopropyl-4-(4-((4-(cyclopropylamino)-3-(trifluoromethyl)-1H-pyrrolo[2,3-b]pyridin-6-yl)amino)-3-methoxyphenyl)-1,4-azaphosphinane 4-oxide]
301 to 1000 | 301 to 1000 | < 100 |  | CCOc1cc(Nc2ccc(C(=O)N3CCOCC3)c3c2OCCO3)nc2[nH]cc(C(F)(F)F)c12 [Example 231, (8-((4-ethoxy-3-(trifluoromethyl)-1H-pyrrolo[2,3-b]pyridin-6-yl)amino)-2,3-dihydrobenzo[b] [1,4]dioxin-5-yl)(morpholino) methanone]
